From ChEMBL document CHEMBL2440045, “The synthesis and anticancer activity of analogs of the indole phytoalexins brassinin, 1-methoxyspirobrassinol methyl ether and cyclobrassinin” (Bioorg Med Chem, 2013)

Tests used:
MDA-MB-231 = assay: Antiproliferative activity against human MDA-MB-231 cells assessed as cell viability after 72 hrs by MTT assay; type: functional, cell-based; conditions: MDA-MB-231, 72 h
Jurkat [1] = assay: Antiproliferative activity against human Jurkat cells assessed as cell viability after 72 hrs by MTT assay; type: functional, cell-based
HeLa [2] = assay: Antiproliferative activity against human HeLa cells assessed as cell viability after 72 hrs by MTT assay; type: functional, cell-based
CCRF-CEM [3] = assay: Antiproliferative activity against human CCRF-CEM cells assessed as cell viability after 72 hrs by MTT assay; type: functional, cell-based
A549 [4] = assay: Antiproliferative activity against human A549 cells assessed as cell viability after 72 hrs by MTT assay; type: functional, cell-based; conditions: A549, 72 h
MCF7 [5] = assay: Antiproliferative activity against human MCF7 cells assessed as cell viability after 72 hrs by MTT assay; type: functional, cell-based; conditions: MCF7, 72 h
MCF7 [6] = assay: Selectivity index, ratio of IC50 for HUVEC to IC50 for human MCF7 cells
HUVEC = assay: Cytotoxicity against HUVEC assessed as cell viability after 48 hrs by MTT assay; type: cell-based; conditions: Homo sapiens
HeLa [7] = assay: Selectivity index, ratio of IC50 for HUVEC to IC50 for human HeLa cells
A549 [8] = assay: Selectivity index, ratio of IC50 for HUVEC to IC50 for human A549 cells
CCRF-CEM [9] = assay: Selectivity index, ratio of IC50 for HUVEC to IC50 for human CCRF-CEM cells
Jurkat [10] = assay: Selectivity index, ratio of IC50 for HUVEC to IC50 for human Jurkat cells
[11] = Selectivity index, ratio of IC50 for HUVEC to IC50 for human MDA-MB-231 cells

Structure (SMILES)	IC50 (MDA-MB-231) [µM]	IC50 (Jurkat [1]) [µM]	IC50 (HeLa [2]) [µM]	IC50 (CCRF-CEM [3]) [µM]	IC50 (A549 [4]) [µM]	IC50 (MCF7 [5]) [µM]	Ratio IC50 (MCF7 [6])	IC50 (HUVEC) [µM]	Ratio IC50 (HeLa [7])	Ratio IC50 (A549 [8])	Ratio IC50 (CCRF-CEM [9])	Ratio IC50 (Jurkat [10])	Ratio IC50 [11]
COn1cc(CNC(=S)SC)c2ccccc21 [1-METHOXYBRASSININ]	> 100	37.5	> 100	63.5	> 100	> 100							
CSC(=S)NCc1c[nH]c2ccccc12 [BRASSININ]	> 100	> 100	> 100	90.2	> 100	> 100							
COc1ccc(/C=C\c2cc(OC)c(OC)c(OC)c2)cc1O [COMBRETASTATIN A4]							2	0.005					
CSC1=NCc2c([nH]c3ccccc23)S1 [CYCLOBRASSININ]	48.3	29.5	57.2	26.2	70.3	72	0.8	57.9	1	0.8	2.2	1.9	1.2
COc1cccc2c1C(=O)c1c(O)c3c(c(O)c1C2=O)C[C@@](O)(C(=O)CO)C[C@@H]3O[C@H]1C[C@H](N)[C@H](O)[C@H](C)O1 [DOXORUBICIN]								0.0807					
COc1cc([C@@H]2c3cc4c(cc3[C@@H](O[C@@H]3O[C@@H]5CO[C@@H](C)O[C@H]5[C@H](O)[C@H]3O)[C@H]3COC(=O)[C@H]23)OCO4)cc(OC)c1O [ETOPOSIDE]							0.11	1.25	0.32	0.09	1.14	1.04	0.06

Second part, led by results:

IC50 (MDA-MB-231) [µM]	IC50 (Jurkat [1]) [µM]	IC50 (HeLa [2]) [µM]	IC50 (CCRF-CEM [3]) [µM]	IC50 (A549 [4]) [µM]	IC50 (MCF7 [5]) [µM]	Structure (SMILES)	Ratio IC50 (MCF7 [6])	IC50 (HUVEC) [µM]	Ratio IC50 (HeLa [7])	Ratio IC50 (A549 [8])	Ratio IC50 (CCRF-CEM [9])	Ratio IC50 (Jurkat [10])	Ratio IC50 [11]
31.5	8	28	5	33	29.5	CO[C@H]1N(C(=O)OC(C)(C)C)c2ccccc2[C@@]12CN=C(Nc1ccc(Br)cc1)S2 (racemic)							
> 100	30	65.5	50	76	78	CO[C@@H]1N(C(=O)OC(C)(C)C)c2ccccc2[C@@]12CN=C(Nc1ccc(Br)cc1)S2 (racemic)							
30	19	29	27	30	30	CO[C@H]1N(C(=O)OC(C)(C)C)c2ccccc2[C@@]12CN=C(Nc1ccc(F)cc1)S2 (racemic)							
32.5	15	27.5	14.5	34	30.5	CO[C@@H]1N(C(=O)OC(C)(C)C)c2ccccc2[C@@]12CN=C(Nc1ccc(F)cc1)S2 (racemic)							
42	23.5	20.8	26.5	26	36.5	CO[C@H]1N(C(=O)OC(C)(C)C)c2ccccc2[C@@]12CN=C(Nc1ccc(Cl)cc1)S2 (racemic)							
20.5	7	10	19	16.5	16	CO[C@@H]1N(C(=O)OC(C)(C)C)c2ccccc2[C@@]12CN=C(Nc1ccc(Cl)cc1)S2 (racemic)							
